We go through 1 compound from US8809358B2, “Use of IκB-kinase inhibitors in pain therapy” (Sanofi-Aventis Deutschland GmbH, priority 2002, dated 2014).

This assay deals with Kaolin/carrageenan-induced knee joint inflammation. Description: Kaolin/carrageenan-induced knee joint inflammation in the rat: reaction of spinal neurons during pressure stimulation of the knee. In kind it is in vivo. An excerpt: • Zymosan-induced paw inflammation in the rat; • Parameter: paw withdrawal time or paw withdrawal threshold during thermal or mechanical stimulation of the hind paw. 2nd Model: • Kaolin/carrageenan-induced knee joint inflammation in the rat; • Parameter: reaction of spinal neurons during pressure stimulation of the knee. Model 1
Experimental implementation: In rats which were under sodium thiopental anesthesia, the spinal canal was opened and spinal medullary neurons which processed the “pain impulses” from the knee-joint were identified. Following identification, a long-term recording, in which the activity of the nerve cell was recorded before and during the development of an acute inflammation in the knee-joint, was carried out. For this, the responses to non-noxious and noxious stimulation at the knee-joint were measured in a control period before inducing the inflammation and for several hours after inducing the inflammation.
The acute inflammation was induced by the intraarticular injection of a suspension (about 150 μl) of kaolin and carrageenan. In controlled experiments, only the vehicle was applied to the spinal medullary surface in order to represent the development of the hyperexcitability under control conditions. As a rule, this development of hyperexcitability took place within 2 to 4 hours and was expressed in a marked increase in the responses to non-noxious and noxious stimulation of the knee-joint (Tab. 3). […] The responses of the cell to non-noxious and noxious stimulation were then subsequently monitored as in the control experiments.

As for `CNc1nccc(-c2cc3cc(C(=O)N[C@@H](CN(c4ccccc4)c4ccccc4)c4n[nH]c(=O)o4)ccc3[nH]2)n1` [Compound 13, N—[(S)-2-diphenylamino-1-(5-oxo-4,5-dihydro[1,3,4]oxadiazol-2-yl)ethyl]-2-(2-methylaminopyrimidin-4-yl)-1H-indole-5-carboxamide], the “Neuronal responses before and during knee-joint inflammation (imp/15 s), mean value” (Non-noxious stimulation at the knee-joint, about 30 μl of 10 μM solution on spinal medulla, Baseline) is given as 0.92 imp/15 s; the “Neuronal responses before and during knee-joint inflammation (imp/15 s), mean value” (Noxious stimulation at the knee-joint, about 30 μl of 10 μM solution on spinal medulla, 120-180 min after K/C injection) was found to be 8.5 imp/15 s; the “Neuronal responses before and during knee-joint inflammation (imp/15 s), mean value” (Noxious stimulation at the knee-joint, about 30 μl of 10 μM solution on spinal medulla, Baseline) was found to be 0.8 imp/15 s. The “development of spinal hyperexcitability compared with the controls” value (rat, about 30 μl of 10 μM solution on spinal medulla) is on record as “almost completely suppressed”. For the same compound, for the setting “rat, comparison with published data from an earlier study”, the “effect on the responses to noxious knee-joint stimulation compared with indomethacin” value is listed as “more strongly expressed”.
